{"source": "paper PMC12053792", "about": "(Journal of Peptide Science, 2025)", "key": {"[1]": {"test": "SAXS and cryo‐TEM (fibril formation)", "type": "physicochemical", "details": "1 wt% aqueous solution", "description": "Interrogation of the structure of peptide‐adjuvant constructs 2 and 3 was performed using CD spectroscopy as well as modelling studies (PEP‐FOLD). […] Fibril formation by α‐helical peptides is typically observed due to lateral association of coiled‐coils. Here, this may play a role, although lateral interaction of the hydrophobic alkyl chains is likely to be the essential driver for the fibril formation. The fibril core radius 14.0–18.5 Å from SAXS (Table S1) is consistent with the length of an extended Pam lipid chain. […]\nwindows, with 0.01 mm path length. Spectra were measured using a 0.5 nm step, 1 nm bandwidth and 1 s collection time per step, and a range of 180 to 280 nm. […]\nThe residue of the calculation was chosen to oscillate around the average, to avoid artifacts in the smoothed curve. CD data, measured in mdeg, was normalized to molar ellipticity using the molar concentration of the sample and the cell path length.\nCryogenic-TEM (Cryo-TEM) Imaging was carried out using a field emission cryo-electron microscope (JEOL JEM-3200FSC), operating at 200 kV. […] The micrographs were recorded using a Gatan Ultrascan 4000 CCD camera. […] Vitrified specimens were prepared using an automated FEI Vitrobot device using Quantifoil 3.5/1 holey carbon copper 200 mesh grids with a hole size of 3.5 µm and […]. […]"}, "IFNγ‐secreting T‐cells": {"test_system": "IFNγ‐secreting T‐cells", "test": "In vivo immunisation, IFNγ ELISpot on splenocytes, HHDII/DR1 mice", "set-up": "species or system HHDII/DR1 (HLA‐A2 transgenic) mice", "description": "Animal experiments were carried out with ethical approval from University of Nottingham ethical review board and under a Home Office approved project license (PP2706800). Mice were dosed with 10 nmol of material in 50 μL at Days 1, 8 and 15 (n = 3). IFNϒ ELISpot assays on splenocytes were conducted on termination at Day 21. General methods for the ELISpot can be found in the Supporting Information. Preparation of media and buffers and steps performed on Days 1 and 2 post‐termination; the ELISpot assays were performed using a laminar flow cabinet and aseptic techniques to ensure the sterility of media, reagents and plates at stages before development of the ELISpot. Development of the ELISpot on Day 4 posttermination was performed on the laboratory bench.\nIn Vivo Evaluation (ELISpot Assay)\nAnimal experiments were carried out with ethical approval from University of Nottingham ethical review boards and under a Home Office approved project license (PP2706800). HLA-HHDII/DR1 (HLA-A2.1+/+ HLADR1+/+, Pasteur Institute) transgenic mice knocked out for murine MHC-I and II and expressing chimeric HLA-A2 (HHDII) and human HLA-DR1 or Balb/c mice (Charles River) aged 6-12 weeks were used. Mice were vaccinated with 10 ηmol of each immunogen at each timepoint. Doses were delivered subcutaneously (s.c.) in 50 µl volume on days 1, 8 and 15. No anaesthesia was used for injections. Responses were screened on day 21 after euthanasia by cervical dislocation. Preparation of media and buffers and steps performed on days 1 and 2 of the ELISpot assay were performed using a laminar flow cabinet and aseptic techniques to ensure the sterility of media, reagents and plates at stages before development of the ELISpot. Development of the ELISpot on day 4 can be performed on the […]\nThe following tables summarise the details of the vaccine candidates and vaccination procedure including (dose time points):\nTable S5. Summary of the injection schedule (including dose concentration and number) for Pam2Cys-SK4-NY-ESO-1157-165 (2) candidate using HHDII/DR1 Tg mice. […]"}}, "note": "Entries after “also recorded” stand apart in the source; their conditions may differ.", "data": [{"substance": "3: vaccine‐adjuvant construct Pam2Cys‐SK4‐NY‐ESO‐1_157‐165 [compound 3]", "values": [{"measurement": "Fibril formation", "setting": "[1]", "result": "also formed fibrils; also recorded: indicate the formation of fibrils"}, {"measurement": "Immune response (in words)", "setting": "IFNγ‐secreting T‐cells; healthy HLA‐A2 transgenic (HHDII/DR1) mice, 10 nmol in 50 μL s.c., days 1, 8, 15, n = 3, day 21, versus media‐only negative control", "result": "specific but weak responses; also recorded: weakly immunogenic; also recorded: shows activity as a self‐adjuvanting vaccine candidate"}, {"measurement": "ANOVA significance (in words)", "setting": "IFNγ‐secreting T‐cells; restimulated with NY‐ESO‐1_87‐111 and NY‐ESO‐1_119‐143", "result": "not significant"}, {"measurement": "ANOVA significance (in words)", "setting": "IFNγ‐secreting T‐cells; restimulated with NY‐ESO‐1_157‐165", "result": "significant effect"}]}]}
